The text below walks through data of patent US9096591B2, “Tetracyclic compounds” (Medivation Technologies, Inc., priority 2007, dated 2015).

Molecules are shown by their SMILES. Like-named read-outs stand apart in the source and are kept apart here.

Assay [1] has as its target T1, human recombinant histamine H2 receptor (Homo sapiens, UniProt P25021).
T1 construct: expressed in transfected cells; host or cells: CHO-K1 cells
Briefly: Histamine H2 radioligand binding ([125I]Aminopotentidine). In a few lines: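 This radioligand binding assay measured displacement of [125I]Aminopotentidine from recombinant human histamine H2 receptors. Compounds were dissolved in 1% DMSO vehicle. Specific binding was calculated by subtracting non-specific binding, defined using 3 μM Tiotidine, and activity was reported as percentage inhibition of that specific binding.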

Assay [2] addresses T2, human recombinant adrenergic α2A receptor (Homo sapiens, UniProt P08913).
T2 construct: expressed in transfected cells; host or cells: insect Sf9 cells
T2 sequence (P08913 1-465): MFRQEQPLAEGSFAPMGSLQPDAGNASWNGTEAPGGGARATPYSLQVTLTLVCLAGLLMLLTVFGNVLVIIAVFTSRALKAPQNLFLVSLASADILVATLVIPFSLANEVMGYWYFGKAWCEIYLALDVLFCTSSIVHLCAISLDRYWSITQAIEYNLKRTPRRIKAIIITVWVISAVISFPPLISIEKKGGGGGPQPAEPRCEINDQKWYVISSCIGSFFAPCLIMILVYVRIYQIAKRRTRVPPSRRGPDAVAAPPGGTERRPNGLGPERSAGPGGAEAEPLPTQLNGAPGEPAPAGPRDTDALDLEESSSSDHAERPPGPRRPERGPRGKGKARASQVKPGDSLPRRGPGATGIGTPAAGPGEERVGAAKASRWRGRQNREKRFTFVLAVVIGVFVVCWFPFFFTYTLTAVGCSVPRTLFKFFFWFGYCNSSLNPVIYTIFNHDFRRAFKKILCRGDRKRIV
The experiment in a line: Adrenergic α2A radioligand binding ([3H]MK-912). The arrangement: Inhibition of ligand binding, Adren. alpha2A: concentration or dose not given beside the values. The following applies: percent inhibition of specific binding. In a few lines: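 Membranes from Sf9 cells expressing the receptor were incubated with 1 nM [3H]MK-912 for 60 minutes at 25° C in 50 mM Tris-HCl pH 7.4, 12.5 mM MgCl2, 2 mM EDTA. 10 μM WB-4101 defined non-specific binding. Values are percent inhibition of specific bound radioactivity after filtration.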

The target of assay [3] is T3, human recombinant serotonin (5-Hydroxytryptamine) 5-HT2A receptor (Homo sapiens, UniProt P28223).
T3 construct: expressed in transfected cells; host or cells: CHO-K1 cells
The experiment in a line: Serotonin 5-HT2A radioligand binding ([3H]Ketanserin). The following applies: percent inhibition of specific binding. How it is done:
Compounds of the invention were incubated with 0.5 nM [^3H]Ketanserin for 60 minutes at 25° C. Non-specific binding was estimated in the presence of 1 μM Mianserin. Receptor proteins were filtered and washed, the filters were then counted to determine [^3H]Ketanserin specifically bound. […] Biochemical assay results are presented as the percent inhibition of specific binding in Table 6.

Assay [4] deals with T4, human recombinant serotonin (5-Hydroxytryptamine) 5-HT2C receptor (Homo sapiens, UniProt P28335).
T4 construct: expressed in transfected cells; host or cells: CHO-K1 cells
T4 sequence (P28335 33-458): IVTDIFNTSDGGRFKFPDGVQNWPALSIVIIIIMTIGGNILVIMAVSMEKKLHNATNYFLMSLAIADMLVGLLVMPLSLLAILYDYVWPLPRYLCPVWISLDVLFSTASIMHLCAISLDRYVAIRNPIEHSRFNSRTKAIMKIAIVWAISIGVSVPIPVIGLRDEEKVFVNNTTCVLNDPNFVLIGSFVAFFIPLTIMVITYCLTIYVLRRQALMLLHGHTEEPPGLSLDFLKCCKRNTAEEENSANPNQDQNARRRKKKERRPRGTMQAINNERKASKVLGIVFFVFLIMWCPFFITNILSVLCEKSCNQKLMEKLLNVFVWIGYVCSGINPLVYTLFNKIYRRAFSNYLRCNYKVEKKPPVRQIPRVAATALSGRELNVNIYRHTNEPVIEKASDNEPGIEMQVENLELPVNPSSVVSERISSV
Briefly: Serotonin 5-HT2C radioligand binding ([3H]Mesulergine). Also noted: Inhibition of ligand binding, Ser. 5-HT2C: concentration or dose not given beside the values. The following applies: percent inhibition of specific binding. How it is done: Compounds of the invention were incubated with 1 nM [^3H]Mesulergine for 60 minutes at 25° C. Non-specific binding was estimated in the presence of 1 μM Mianserin. Receptor proteins were filtered and washed, the filters were then counted to determine [^3H]Mesulergine specifically bound. […] Biochemical assay results are presented as the percent inhibition of specific binding in Table 6.

Assay [5] concerns the target T5, human recombinant serotonin (5-Hydroxytryptamine) 5-HT6 receptor (Homo sapiens, UniProt P50406).
T5 construct: expressed in transfected cells; host or cells: human HeLa cells
The experiment in a line: Serotonin 5-HT6 radioligand binding ([3H]LSD). Also noted: Inhibition of ligand binding, Ser. 5-HT6: concentration or dose not given beside the values. The following applies: percent inhibition of specific binding. The source says:
Receptor proteins were filtered and washed, the filters were then counted to determine [3H]LSD specifically bound. […] Biochemical assay results are presented as the percent inhibition of specific binding in Table 6.

The target of assay [6] is T6, Serotonin (5-Hydroxytryptamine) 5-HT7 (Homo sapiens, UniProt P34969).
T6 construct: expressed in transfected cells; host or cells: CHO cells
Briefly: Serotonin 5-HT7 radioligand binding ([3H]LSD). The arrangement: Inhibition of ligand binding, Ser. 5-HT7: concentration or dose not given beside the values. Particulars: percent inhibition of specific binding. How it is done: Lysergic acid diethylamide (LSD) for 2 hours at 25° C. […] Receptor proteins were filtered and washed, the filters were then counted to determine [^3H]LSD specifically bound. […] Biochemical assay results are presented as the percent inhibition of specific binding in Table 6.

[7] abbreviates: 1 μM compound, 0.1 nM [125I]Aminopotentidine, read-out: Histamine Binding H2, percent inhibition of specific binding.
The mark [8] stands for this setting: percent inhibition of specific binding, screened at 1 μM, read-out: Inhibition of ligand binding, Hist. H2.

T6 sequence (P34969 whole entry): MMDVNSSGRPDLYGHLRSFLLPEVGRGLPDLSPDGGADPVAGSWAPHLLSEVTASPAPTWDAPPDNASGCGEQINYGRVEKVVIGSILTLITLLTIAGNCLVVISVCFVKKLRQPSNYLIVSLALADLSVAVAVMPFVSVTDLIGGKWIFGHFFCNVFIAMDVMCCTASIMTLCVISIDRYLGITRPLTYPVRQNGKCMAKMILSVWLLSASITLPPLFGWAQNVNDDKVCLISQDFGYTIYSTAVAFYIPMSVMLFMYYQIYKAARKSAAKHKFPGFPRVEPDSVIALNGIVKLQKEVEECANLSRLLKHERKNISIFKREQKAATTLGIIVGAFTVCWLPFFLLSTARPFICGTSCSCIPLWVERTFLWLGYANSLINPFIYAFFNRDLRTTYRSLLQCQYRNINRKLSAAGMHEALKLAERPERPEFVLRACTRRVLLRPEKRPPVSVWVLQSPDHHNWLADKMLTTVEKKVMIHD
T5 sequence (P50406 whole entry): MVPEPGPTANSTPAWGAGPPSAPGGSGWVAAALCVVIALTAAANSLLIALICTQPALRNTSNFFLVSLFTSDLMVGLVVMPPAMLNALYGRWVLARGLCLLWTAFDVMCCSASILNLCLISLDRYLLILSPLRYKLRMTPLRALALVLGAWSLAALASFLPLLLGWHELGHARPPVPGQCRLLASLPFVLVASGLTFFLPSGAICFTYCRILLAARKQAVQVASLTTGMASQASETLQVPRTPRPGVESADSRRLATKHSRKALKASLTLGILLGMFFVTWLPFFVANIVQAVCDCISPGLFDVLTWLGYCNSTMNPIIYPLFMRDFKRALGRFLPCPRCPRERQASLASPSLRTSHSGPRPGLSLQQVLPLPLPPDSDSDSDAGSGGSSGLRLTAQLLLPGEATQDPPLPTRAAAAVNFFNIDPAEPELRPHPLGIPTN
T1 sequence (P25021 whole entry): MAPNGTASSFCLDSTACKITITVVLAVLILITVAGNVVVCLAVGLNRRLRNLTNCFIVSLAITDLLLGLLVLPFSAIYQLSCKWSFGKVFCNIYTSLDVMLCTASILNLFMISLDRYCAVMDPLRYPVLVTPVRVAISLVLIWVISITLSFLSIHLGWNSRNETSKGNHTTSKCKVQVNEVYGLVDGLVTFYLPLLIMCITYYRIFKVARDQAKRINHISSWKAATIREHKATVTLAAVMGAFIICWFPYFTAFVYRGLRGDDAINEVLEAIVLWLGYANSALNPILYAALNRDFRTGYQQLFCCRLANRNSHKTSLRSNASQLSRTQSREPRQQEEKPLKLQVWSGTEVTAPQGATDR
T3 sequence (P28223 whole entry): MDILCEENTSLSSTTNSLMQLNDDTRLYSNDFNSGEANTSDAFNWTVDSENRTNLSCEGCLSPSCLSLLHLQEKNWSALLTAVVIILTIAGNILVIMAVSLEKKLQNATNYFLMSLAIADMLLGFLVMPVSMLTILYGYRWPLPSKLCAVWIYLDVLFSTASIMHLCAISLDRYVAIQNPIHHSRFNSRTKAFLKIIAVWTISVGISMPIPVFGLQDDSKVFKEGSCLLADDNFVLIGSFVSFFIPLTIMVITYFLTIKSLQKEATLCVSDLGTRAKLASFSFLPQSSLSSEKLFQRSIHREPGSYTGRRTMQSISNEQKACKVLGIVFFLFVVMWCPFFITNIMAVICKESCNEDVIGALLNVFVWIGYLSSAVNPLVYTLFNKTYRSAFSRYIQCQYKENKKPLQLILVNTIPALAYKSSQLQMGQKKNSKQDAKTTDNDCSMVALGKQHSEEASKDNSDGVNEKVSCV

For orientation: inhibition means the relative decrease from the control value, in per cent. Take `CN1CCc2c(c3ccccc3n2CCc2ccncc2)C1` [Compound 10, 2,3,4,5-tetrahydro-2-methyl-5-(2-(pyridin-4-yl)ethyl)-1H-pyrido[4,3-b]indole]: the inhibition at 1 µM in assay [1] (setting [7]) and in assay [1] (setting [8]) was 12% in each case. The “Inhibition of ligand binding, Adren. alpha2A” value (“Inhibition … Adren. alpha2A” for short) in assay [2] came to 33%. In addition, in assay [3], the “Inhibition of ligand binding, Ser. 5-HT2A” value (from here on “Inhibition … Ser. 5-HT2A”) is on record as 69%. For the same compound, the “Inhibition of ligand binding, Ser. 5-HT2C” value (shortened to “Inhibition … Ser. 5-HT2C”) in assay [4] came to 53%. In assay [5], the “Inhibition of ligand binding, Ser. 5-HT6” value was found to be 32%. In assay [6], the “Inhibition of ligand binding, Ser. 5-HT7” value is 73%.

For `CCN1CCc2c(c3ccccc3n2Cc2ccccc2)C1` [Compound 16, 5-benzyl-2-ethyl-2,3,4,5-tetrahydro-1H-pyrido[4,3-b]indole], the inhibition at 1 µM in assay [1] (setting [7]) and in assay [1] (setting [8]) was 3% throughout. In assay [2], the “Inhibition … Adren. alpha2A” value is 10%. Besides, the “Inhibition … Ser. 5-HT2A” value in assay [3] came out at 14%. Moreover, the “Inhibition … Ser. 5-HT2C” value in assay [4] was determined as 5%. The “Inhibition of ligand binding, Ser. 5-HT6” value in assay [5] is on record as 6%. In assay [6], the “Inhibition of ligand binding, Ser. 5-HT7” value turned out to be 14%.

As for `Cc1ccc(Cn2c3c(c4ccccc42)CN(C)CC3)cn1` [Compound 17, 2,3,4,5-tetrahydro-2-methyl-5-((6-methylpyridin-3-yl)methyl)-1H-pyrido[4,3-b]indole], the inhibition at 1 µM in assay [1] (setting [7]) and in assay [1] (setting [8]) was -2% each time. Moreover, in assay [2], the “Inhibition … Adren. alpha2A” value is recorded as 56%. For the same compound, in assay [3], the “Inhibition … Ser. 5-HT2A” value is on record as −7%. The “Inhibition … Ser. 5-HT2C” value in assay [4] is given as 8%. In addition, the “Inhibition of ligand binding, Ser. 5-HT6” value in assay [5] is 0%. Also, the “Inhibition of ligand binding, Ser. 5-HT7” value in assay [6] worked out at 7%.

Consider `CCN1CCc2c(c3cc(C)ccc3n2CCc2ccccn2)C1` [Compound 23, 2-ethyl-2,3,4,5-tetrahydro-8-methyl-5-(2-(pyridin-2-yl)ethyl)-1H-pyrido[4,3-b]indole], for which the inhibition at 1 µM in assay [1] (setting [7]) and in assay [1] (setting [8]) was 28% throughout. In addition, in assay [2], the “Inhibition … Adren. alpha2A” value is reported as 57%. Besides, in assay [3], the “Inhibition … Ser. 5-HT2A” value is given as 78%. Besides, the “Inhibition … Ser. 5-HT2C” value in assay [4] was 53%. Besides, the “Inhibition of ligand binding, Ser. 5-HT6” value in assay [5] came to 47%. For the same compound, the “Inhibition of ligand binding, Ser. 5-HT7” value in assay [6] came to 94%.

In the case of `CCN1CCc2c(c3cc(C)ccc3n2CCc2ccc(C)nc2)C1` [Compound 31, 2-ethyl-2,3,4,5-tetrahydro-8-methyl-5-(2-(6-methylpyridin-3-yl)ethyl)-1H-pyrido[4,3-b]indole], the inhibition at 1 µM in assay [1] (setting [7]) and in assay [1] (setting [8]) was 34% throughout. In addition, the “Inhibition … Adren. alpha2A” value in assay [2] was found to be 66%. The “Inhibition … Ser. 5-HT2A” value in assay [3] turned out to be 65%. Besides, the “Inhibition … Ser. 5-HT2C” value in assay [4] was 39%. Moreover, in assay [5], the “Inhibition of ligand binding, Ser. 5-HT6” value came out at 64%. Further, the “Inhibition of ligand binding, Ser. 5-HT7” value in assay [6] stood at 85%.

Consider `CN1CCc2c(c3cc(I)ccc3n2CCc2ccccc2F)C1` [Compound 89, 5-(2-fluorophenethyl)-2,3,4,5-tetrahydro-8-iodo-2-methyl-1H-pyrido[4,3-b]indole], for which the inhibition at 1 µM in assay [1] (setting [7]) and in assay [1] (setting [8]) was 88% in each case. The “Inhibition … Adren. alpha2A” value in assay [2] is 98%. Besides, the “Inhibition … Ser. 5-HT2A” value in assay [3] amounted to 90%. The “Inhibition … Ser. 5-HT2C” value in assay [4] is recorded as 97%. For the same compound, the “Inhibition of ligand binding, Ser. 5-HT6” value in assay [5] is 103%. For the same compound, in assay [6], the “Inhibition of ligand binding, Ser. 5-HT7” value was 100%.

As for `Cc1ccc2c(c1)c1c(n2Cc2ccccc2)CCN(C)C1` [Compound 137, 5-benzyl-2,3,4,5-tetrahydro-2,8-dimethyl-1H-pyrido[4,3-b]indole], the inhibition at 1 µM in assay [1] (setting [7]) and in assay [1] (setting [8]) was 45% each time. Also, in assay [2], the “Inhibition … Adren. alpha2A” value is 15%. Moreover, the “Inhibition … Ser. 5-HT2A” value in assay [3] is −2%. The “Inhibition … Ser. 5-HT2C” value in assay [4] was 10%. Besides, the “Inhibition of ligand binding, Ser. 5-HT6” value in assay [5] turned out to be 12%. Also, the “Inhibition of ligand binding, Ser. 5-HT7” value in assay [6] came to 15%.

With `CCN1CCc2c(c3cc(C)ccc3n2Cc2ccc(C)nc2)C1` [Compound 138, 2-ethyl-2,3,4,5-tetrahydro-8-methyl-5-((6-methylpyridin-3-yl)methyl)-1H-pyrido[4,3-b]indole], the inhibition at 1 µM in assay [1] (setting [7]) and in assay [1] (setting [8]) was 27% in each case. The “Inhibition … Adren. alpha2A” value in assay [2] is reported as 31%. Also, the “Inhibition … Ser. 5-HT2A” value in assay [3] worked out at 14%. Besides, the “Inhibition … Ser. 5-HT2C” value in assay [4] turned out to be 5%. The “Inhibition of ligand binding, Ser. 5-HT6” value in assay [5] came to 22%. Moreover, the “Inhibition of ligand binding, Ser. 5-HT7” value in assay [6] came to 23%.

With `Cc1ccc2c(c1)c1c(n2Cc2ccc(C)nc2)CCN(C)C1` [Compound 139, 2,3,4,5-tetrahydro-2,8-dimethyl-5-((6-methylpyridin-3-yl)methyl)-1H-pyrido[4,3-b]indole], the inhibition at 1 µM in assay [1] (setting [8]) stood at 7%. Besides, in assay [2], the “Inhibition … Adren. alpha2A” value turned out to be 50%. Besides, the “Inhibition … Ser. 5-HT2A” value in assay [3] is 2%. In assay [4], the “Inhibition … Ser. 5-HT2C” value is 0%. Further, the “Inhibition of ligand binding, Ser. 5-HT6” value in assay [5] came out at 39%. In assay [6], the “Inhibition of ligand binding, Ser. 5-HT7” value came out at 74%.

`CCN1CCc2c(c3cc(C)ccc3n2Cc2ccccc2)C1` [Compound 140, 5-benzyl-2-ethyl-2,3,4,5-tetrahydro-8-methyl-1H-pyrido[4,3-b]indole]: the inhibition at 1 µM in assay [1] (setting [7]) and in assay [1] (setting [8]) was 45% in each case. Further, in assay [2], the “Inhibition … Adren. alpha2A” value is 17%. Also, the “Inhibition … Ser. 5-HT2A” value in assay [3] is recorded as −3%. Moreover, the “Inhibition … Ser. 5-HT2C” value in assay [4] is reported as −10%. In assay [5], the “Inhibition of ligand binding, Ser. 5-HT6” value is reported as 8%. In addition, in assay [6], the “Inhibition of ligand binding, Ser. 5-HT7” value is given as 2%.

As for `Cc1ccc2c(c1)c1c(n2CCN2CCCC2)CCN(C)C1` [Compound 221, 2,3,4,5-tetrahydro-2,8-dimethyl-5-(2-(pyrrolidin-1-yl)ethyl)-1H-pyrido[4,3-b]indole], the inhibition at 1 µM in assay [1] (setting [7]) and in assay [1] (setting [8]) was 52% in each case. Also, the “Inhibition … Adren. alpha2A” value in assay [2] is 37%. Also, in assay [3], the “Inhibition … Ser. 5-HT2A” value is 46%. Further, in assay [4], the “Inhibition … Ser. 5-HT2C” value is 69%. Also, in assay [5], the “Inhibition of ligand binding, Ser. 5-HT6” value was 29%. For the same compound, in assay [6], the “Inhibition of ligand binding, Ser. 5-HT7” value worked out at 36%.
